How the values were obtained:
[1] = test system: Production of Fumonisin FB1 by Fusarium proliferatum; assay: Production of Fumonisin FB1 by Fusarium proliferatum; format: cell-based; settings: FB1 in liquid medium after 6 days at 20° C., HPLC-MS/MS; for IC50: Fusarium proliferatum, 144 h, read-out: pI50 Fum (converted)
[2] = test system: Fusarium proliferatum; assay: Growth of Fusarium proliferatum (OD620) in the fumonisin test; format: cell-based; settings: for IC50: Fusarium proliferatum, 144 h, read-out: pI50 growth; for pI50 growth: OD620 at the beginning and after 6 days
[3] = test system: Production of DON/acetyl-DON by Fusarium graminearum; assay: microbe, parasite or virus in culture; format: cell-based; settings: 168 h, 7 days at 28° C., read-out: activity in the inhibition of DON/AcDON
[4] = logP by HPLC on reversed-phase columns (EEC Directive 79/831 Annex V.A8); format: physicochemical; settings: for log p [b]: pH 2.7; for log p [c]: pH 7.8
Outline: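 Reversed-phase C18 HPLC per EEC Directive 79/831 Annex V.A8, 10→95% acetonitrile linear gradient. Acidic runs: pH 2.3 with 0.1% aqueous phosphoric acid (HPLC), or pH 2.7 LC-MS with 0.1% formic acid in both phases. Neutral LC-MS at pH 7.8 using 0.001 molar aqueous ammonium bicarbonate.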

[5] = test system: Phakopsora pachyrhizi; assay: Phakopsora test (soya beans)/protective; format: in vivo; settings: protective, active compound concentration 250 ppm, evaluation 1 day after inoculation
Experimental: Phakopsora Test (Soya Beans)/Protective
Evaluation is carried out 1 day after the inoculation.

| Compound | IC50 [1] | IC50 [2] | inhibition at 50 µM [3] | chromatographic logP ([4]; pH 2.7, log p [b]) | chromatographic logP ([4]; pH 2.7, logP (pH 2.7)) | chromatographic logP ([4]; pH 7.8, log p [c]) | pI50 Fum [1] | pI50 growth [2] | log p [b] [4] | log p [c] [4] | efficacy [5] | log p [a] ([4]; pH 2.3) |
| --- | --- | --- | --- | --- | --- | --- | --- | --- | --- | --- | --- | --- |
| Clc1cnc(Nc2cccc(C3OCCO3)c2)nc1NC1CC1 [Example 1, 5-Chloro-N^4-cyclopropyl-N^2-[3-(1,3-dioxolan-2-yl)phenyl]pyrimidine-2,4-diamine] | 158 nM | 398 nM | > 80% | 1.59 | 1.59 | 2.67 |  |  |  |  |  |  |
| CC1(c2cccc(Nc3ncc(Cl)c(NC4CC4)n3)c2)OCCO1 [Example 12, 5-Chloro-N^4-cyclopropyl-N^2-[3-(2-methyl-1,3-dioxolan-2-yl)phenyl]pyrimidine-2,4-diamine] | 501 nM | 1580 nM |  | 1.9 | 1.9 | 3.09 |  |  |  |  |  |  |
| FC(F)(F)c1cnc(Nc2cccc(C3OCCO3)c2)nc1NC1CC1 [Example 24] |  |  |  |  |  |  | 6 | 5.5 | 3.7 | 3.02 |  |  |
| CC1(c2ccc(Nc3ncc(Cl)c(NC4CC4)n3)cc2)OCCO1 [Example 27, 5-Chloro-N^4-cyclopropyl-N^2-[4-(2-methyl-1,3-dioxolan-2-yl)phenyl]pyrimidine-2,4-diamine] | 398 nM | 1000 nM |  | 1.84 | 1.84 | 2.99 |  |  |  |  |  |  |
| CC(C)(C)C1COC(c2cccc(Nc3ncc(Cl)c(NC4CC4)n3)c2)O1 (stereo not shown) [Example 30] |  |  |  |  |  |  | 6 | 5.3 |  | 4.34[c] |  |  |
| COCC1COC(c2cccc(Nc3ncc(C(F)(F)F)c(NC4CC4)n3)c2)O1 (stereo not shown) [Example 105] |  |  |  |  |  |  |  | 5.5 | 2.74[b] | 3.23 | ≥ 80% | 2.26 |
